Test results as given in PubChem BioAssay (NCI).
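Grown in 96-well plates, cells were treated for 48 hours with each compound at five concentrations. Insufficient inhibition: endpoint recorded as highest concentration tested. At the TGI there is no net growth.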

Legend:
Test in all cases: NCI tumour cell line growth inhibition, 48 h
NCI-H226 lung = test system: NCI-H226 lung
A498 renal = test system: A498 renal
HOP-18 NSCLC = test system: HOP-18 NSCLC
SR leukemia = test system: SR leukemia
K-562 leukemia = test system: K-562 leukemia
UACC-62 melanoma = test system: UACC-62 melanoma
SNB-75 CNS = test system: SNB-75 CNS
XF 498 CNS = test system: XF 498 CNS
COLO 205 colon = test system: COLO 205 colon
LOX IMVI melanoma = test system: LOX IMVI melanoma
U251 CNS = test system: U251 CNS
SNB-78 CNS = test system: SNB-78 CNS
786-0 renal = test system: 786-0 renal
M14 melanoma = test system: M14 melanoma
KM12 colon = test system: KM12 colon
MALME-3M melanoma = test system: MALME-3M melanoma
OVCAR-3 ovarian = test system: OVCAR-3 ovarian
HT29 colon = test system: HT29 colon
TK-10 renal = test system: TK-10 renal
ACHN renal = test system: ACHN renal
RXF 393 renal = test system: RXF 393 renal
SK-OV-3 ovarian = test system: SK-OV-3 ovarian
KM20L2 colon = test system: KM20L2 colon
NCI-H522 lung = test system: NCI-H522 lung
OVCAR-4 ovarian = test system: OVCAR-4 ovarian
SNB-19 CNS = test system: SNB-19 CNS
HCT-116 colon = test system: HCT-116 colon
MOLT-4 leukemia = test system: MOLT-4 leukemia
A549 NSCLC = test system: A549 NSCLC
OVCAR-5 ovarian = test system: OVCAR-5 ovarian
SN12C renal = test system: SN12C renal
UO-31 renal = test system: UO-31 renal
LXFL 529 NSCLC = test system: LXFL 529 NSCLC
HOP-62 NSCLC = test system: HOP-62 NSCLC
DMS 273 small cell lung = test system: DMS 273 small cell lung
SK-MEL-2 melanoma = test system: SK-MEL-2 melanoma
SK-MEL-28 melanoma = test system: SK-MEL-28 melanoma
OVCAR-8 ovarian = test system: OVCAR-8 ovarian
EKVX NSCLC = test system: EKVX NSCLC
HCC-2998 colon = test system: HCC-2998 colon
DMS 114 small cell lung = test system: DMS 114 small cell lung
UACC-257 melanoma = test system: UACC-257 melanoma
HCT-15 colon = test system: HCT-15 colon
RPMI-8226 leukemia = test system: RPMI-8226 leukemia
RXF-631 renal = test system: RXF-631 renal
DLD-1 colon = test system: DLD-1 colon
M19-MEL melanoma = test system: M19-MEL melanoma
SF-539 CNS = test system: SF-539 CNS
NCI-H23 lung = test system: NCI-H23 lung

CCOc1cccc2nc3cccc(C(=O)NCCN(C)C)c3nc12
TGI (NCI-H226 lung): 2.08 µM | TGI (A498 renal): 2.26 µM | TGI (HOP-18 NSCLC): > 38.4 µM | TGI (SR leukemia): 26.1 µM | TGI (K-562 leukemia): 2.62 µM | TGI (UACC-62 melanoma): 3.38 µM | TGI (SNB-75 CNS): 11.6 µM | TGI (XF 498 CNS): 3.52 µM | TGI (COLO 205 colon): 3.52 µM | TGI (LOX IMVI melanoma): 2.11 µM | TGI (U251 CNS): 9.26 µM | TGI (SNB-78 CNS): 9.3 µM | TGI (786-0 renal): > 28.7 µM | TGI (M14 melanoma): 6.04 µM | TGI (KM12 colon): 9.36 µM | TGI (MALME-3M melanoma): 2.42 µM | TGI (OVCAR-3 ovarian): 5.51 µM | TGI (HT29 colon): 7.14 µM | TGI (TK-10 renal): 7.9 µM | TGI (ACHN renal): 3.01 µM | TGI (RXF 393 renal): 3.21 µM | TGI (SK-OV-3 ovarian): > 35.4 µM | TGI (KM20L2 colon): 5.48 µM | TGI (NCI-H522 lung): > 100 µM | TGI (OVCAR-4 ovarian): 8.58 µM | TGI (SNB-19 CNS): 11.2 µM | TGI (HCT-116 colon): 2.37 µM | TGI (MOLT-4 leukemia): 0.746 µM | TGI (A549 NSCLC): > 100 µM | TGI (OVCAR-5 ovarian): 5.28 µM | TGI (SN12C renal): 3.59 µM | TGI (UO-31 renal): > 100 µM | TGI (LXFL 529 NSCLC): > 21.9 µM | TGI (HOP-62 NSCLC): 2.18 µM | TGI (DMS 273 small cell lung): > 100 µM | TGI (SK-MEL-2 melanoma): 3.86 µM | TGI (SK-MEL-28 melanoma): 3.77 µM | TGI (OVCAR-8 ovarian): > 20.4 µM | TGI (EKVX NSCLC): 11.6 µM | TGI (HCC-2998 colon): 3.53 µM | TGI (DMS 114 small cell lung): 3.7 µM | TGI (UACC-257 melanoma): 6.45 µM | TGI (HCT-15 colon): 7.47 µM | TGI (RPMI-8226 leukemia): 6.46 µM | TGI (RXF-631 renal): 10.5 µM | TGI (DLD-1 colon): 7.66 µM | TGI (M19-MEL melanoma): 2.83 µM | TGI (SF-539 CNS): 6.77 µM | TGI (NCI-H23 lung): 4.45 µM
